Reference: publication PMC7416039 (Pharmacology Research & Perspectives, 2020)
One block for each molecule: values may come before it.

Assays:
[1] = biological target: T1, human aldehyde dehydrogenase 2 (ALDH2) (Homo sapiens, UniProt P05091); test: Reversible inhibition of ALDH2; format: biochemical
T1 sequence (P05091 18-517): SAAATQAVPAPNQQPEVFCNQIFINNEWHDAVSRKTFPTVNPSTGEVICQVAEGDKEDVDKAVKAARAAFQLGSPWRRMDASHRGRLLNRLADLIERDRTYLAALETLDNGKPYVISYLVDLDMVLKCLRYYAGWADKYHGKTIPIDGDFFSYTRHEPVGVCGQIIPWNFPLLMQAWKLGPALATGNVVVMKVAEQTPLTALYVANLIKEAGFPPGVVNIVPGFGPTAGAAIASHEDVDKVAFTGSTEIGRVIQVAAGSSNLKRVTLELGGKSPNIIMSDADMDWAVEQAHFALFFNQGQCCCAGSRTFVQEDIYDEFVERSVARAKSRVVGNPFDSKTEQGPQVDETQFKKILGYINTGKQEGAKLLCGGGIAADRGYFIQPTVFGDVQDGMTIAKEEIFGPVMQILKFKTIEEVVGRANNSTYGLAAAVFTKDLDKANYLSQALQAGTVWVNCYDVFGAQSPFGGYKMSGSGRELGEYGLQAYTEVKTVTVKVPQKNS

[2] = biological target: T1, human aldehyde dehydrogenase 2 (ALDH2); test: Time-dependent inhibition of ALDH2; format: biochemical; settings: for Time-dependent inhibition of ALDH2 (residual ALDH2 catalytic activity): 10 μmol/L secnidazole
[3] = Metabolism of secnidazole in human liver microsomes; format: in vitro ADME; settings: human, human liver microsomes, pH 7.4
human liver microsomes = test: as above; format: in vitro ADME
[4] = Metabolism of secnidazole in human plasma in vitro; format: in vitro ADME
[5] = test system: cDNA‐expressed human CYP enzymes (Supersomes); test: Metabolism of 1 μmol/L secnidazole by cDNA-expressed human CYP enzymes; format: in vitro ADME; settings: 0-30 min
[6] = cited from earlier work
CYP1A2 [7] = biological target: T2, CYP1A2 (Homo sapiens, UniProt P05177); test: Direct inhibition of CYP isoforms in HLM
T2 sequence (P05177 1-516): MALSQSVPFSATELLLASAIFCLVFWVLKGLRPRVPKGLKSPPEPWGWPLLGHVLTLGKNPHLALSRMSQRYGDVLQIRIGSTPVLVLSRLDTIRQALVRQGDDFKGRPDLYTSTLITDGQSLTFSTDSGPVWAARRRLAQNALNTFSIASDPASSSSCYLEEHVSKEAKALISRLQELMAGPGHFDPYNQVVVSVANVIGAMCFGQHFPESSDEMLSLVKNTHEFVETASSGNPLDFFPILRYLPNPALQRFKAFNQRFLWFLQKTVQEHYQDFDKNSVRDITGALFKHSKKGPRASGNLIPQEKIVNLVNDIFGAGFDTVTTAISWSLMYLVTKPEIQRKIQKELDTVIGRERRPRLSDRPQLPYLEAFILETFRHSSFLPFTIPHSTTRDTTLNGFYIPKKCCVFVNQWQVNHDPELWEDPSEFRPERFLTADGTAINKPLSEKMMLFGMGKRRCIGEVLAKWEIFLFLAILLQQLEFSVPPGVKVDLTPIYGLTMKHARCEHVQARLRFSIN

CYP2A6 [8] = biological target: T3, CYP2A6 (Homo sapiens, UniProt P11509); test: Direct inhibition of CYP isoforms in HLM
T3 sequence (P11509 1-494): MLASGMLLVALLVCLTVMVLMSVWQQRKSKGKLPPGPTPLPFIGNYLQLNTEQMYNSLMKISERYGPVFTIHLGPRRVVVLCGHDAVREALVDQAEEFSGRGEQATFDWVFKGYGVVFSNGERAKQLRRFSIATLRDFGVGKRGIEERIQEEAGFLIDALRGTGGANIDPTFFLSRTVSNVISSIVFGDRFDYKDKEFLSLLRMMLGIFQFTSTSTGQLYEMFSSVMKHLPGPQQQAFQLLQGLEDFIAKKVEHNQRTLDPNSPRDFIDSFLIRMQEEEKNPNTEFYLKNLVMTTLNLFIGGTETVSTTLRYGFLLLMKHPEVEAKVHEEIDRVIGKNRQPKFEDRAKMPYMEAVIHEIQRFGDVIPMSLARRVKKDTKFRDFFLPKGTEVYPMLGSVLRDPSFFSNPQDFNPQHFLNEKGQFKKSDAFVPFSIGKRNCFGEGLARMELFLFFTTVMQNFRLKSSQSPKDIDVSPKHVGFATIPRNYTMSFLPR

CYP2B6 [9] = biological target: T4, CYP2B6 (Homo sapiens, UniProt P20813); test: Direct inhibition of CYP isoforms in HLM
T4 sequence (P20813 1-491): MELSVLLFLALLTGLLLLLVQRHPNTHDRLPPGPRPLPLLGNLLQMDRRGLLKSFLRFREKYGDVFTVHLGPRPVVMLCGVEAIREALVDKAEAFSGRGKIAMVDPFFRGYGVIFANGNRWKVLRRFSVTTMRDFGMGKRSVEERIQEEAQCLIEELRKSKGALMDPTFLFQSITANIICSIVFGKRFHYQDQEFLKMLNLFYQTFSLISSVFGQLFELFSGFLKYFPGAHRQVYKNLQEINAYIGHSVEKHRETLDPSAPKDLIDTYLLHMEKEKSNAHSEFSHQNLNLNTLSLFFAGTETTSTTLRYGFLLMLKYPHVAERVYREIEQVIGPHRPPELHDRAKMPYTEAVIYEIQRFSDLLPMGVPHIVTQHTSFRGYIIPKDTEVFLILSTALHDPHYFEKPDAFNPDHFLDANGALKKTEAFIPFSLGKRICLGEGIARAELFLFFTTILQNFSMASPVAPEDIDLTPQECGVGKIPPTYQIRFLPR

CYP2C8 [10] = biological target: T5, CYP2C8 (Homo sapiens, UniProt P10632); test: Direct inhibition of CYP isoforms in HLM
T5 sequence (P10632 1-490): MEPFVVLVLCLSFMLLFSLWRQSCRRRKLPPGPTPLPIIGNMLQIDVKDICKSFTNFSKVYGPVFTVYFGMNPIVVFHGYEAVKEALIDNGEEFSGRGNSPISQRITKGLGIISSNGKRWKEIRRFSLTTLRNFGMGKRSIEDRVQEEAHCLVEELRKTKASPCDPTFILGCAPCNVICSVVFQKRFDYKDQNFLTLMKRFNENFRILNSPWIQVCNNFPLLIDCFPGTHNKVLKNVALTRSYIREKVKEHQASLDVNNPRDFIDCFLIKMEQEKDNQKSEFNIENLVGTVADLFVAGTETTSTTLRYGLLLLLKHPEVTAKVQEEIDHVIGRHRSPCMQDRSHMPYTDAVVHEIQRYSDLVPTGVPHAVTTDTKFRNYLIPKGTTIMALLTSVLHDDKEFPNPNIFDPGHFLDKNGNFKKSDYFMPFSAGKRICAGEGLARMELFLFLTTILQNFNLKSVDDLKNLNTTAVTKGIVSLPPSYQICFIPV

CYP2C9 [11] = biological target: T6, CYP2C9 (Homo sapiens, UniProt P11712); test: Direct inhibition of CYP isoforms in HLM
T6 sequence (P11712 whole entry, canonical isoform): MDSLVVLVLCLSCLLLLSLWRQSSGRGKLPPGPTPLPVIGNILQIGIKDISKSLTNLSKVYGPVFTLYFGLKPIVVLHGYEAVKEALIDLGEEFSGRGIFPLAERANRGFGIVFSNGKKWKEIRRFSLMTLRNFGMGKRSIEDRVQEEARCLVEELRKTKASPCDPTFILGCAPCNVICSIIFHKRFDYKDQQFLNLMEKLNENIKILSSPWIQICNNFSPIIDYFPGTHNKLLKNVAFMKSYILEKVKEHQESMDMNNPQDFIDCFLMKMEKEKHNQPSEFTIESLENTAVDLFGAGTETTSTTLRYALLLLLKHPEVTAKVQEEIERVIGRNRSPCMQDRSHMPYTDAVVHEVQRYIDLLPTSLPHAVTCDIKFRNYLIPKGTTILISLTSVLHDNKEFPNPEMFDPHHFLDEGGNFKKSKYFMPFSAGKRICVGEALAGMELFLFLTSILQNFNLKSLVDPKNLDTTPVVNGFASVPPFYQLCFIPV

CYP2C19 [12] = biological target: T7, CYP2C19 (Homo sapiens, UniProt P33261); test: Direct inhibition of CYP isoforms in HLM
T7 sequence (P33261 whole entry, canonical isoform): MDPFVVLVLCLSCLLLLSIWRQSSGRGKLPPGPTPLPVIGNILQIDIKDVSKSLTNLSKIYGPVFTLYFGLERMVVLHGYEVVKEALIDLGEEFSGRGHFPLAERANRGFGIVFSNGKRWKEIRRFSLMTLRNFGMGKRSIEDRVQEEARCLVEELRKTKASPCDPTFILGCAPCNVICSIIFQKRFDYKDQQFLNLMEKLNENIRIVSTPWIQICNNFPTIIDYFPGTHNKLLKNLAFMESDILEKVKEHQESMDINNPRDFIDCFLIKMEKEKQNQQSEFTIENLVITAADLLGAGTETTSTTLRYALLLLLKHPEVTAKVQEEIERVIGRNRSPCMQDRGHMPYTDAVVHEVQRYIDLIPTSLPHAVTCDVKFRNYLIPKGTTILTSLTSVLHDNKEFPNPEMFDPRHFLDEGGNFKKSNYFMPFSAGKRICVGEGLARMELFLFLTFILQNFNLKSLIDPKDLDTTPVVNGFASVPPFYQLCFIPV

CYP2D6 [13] = biological target: T8, CYP2D6 (Homo sapiens, UniProt P10635); test: Direct inhibition of CYP isoforms in HLM
T8 sequence (P10635 whole entry, canonical isoform): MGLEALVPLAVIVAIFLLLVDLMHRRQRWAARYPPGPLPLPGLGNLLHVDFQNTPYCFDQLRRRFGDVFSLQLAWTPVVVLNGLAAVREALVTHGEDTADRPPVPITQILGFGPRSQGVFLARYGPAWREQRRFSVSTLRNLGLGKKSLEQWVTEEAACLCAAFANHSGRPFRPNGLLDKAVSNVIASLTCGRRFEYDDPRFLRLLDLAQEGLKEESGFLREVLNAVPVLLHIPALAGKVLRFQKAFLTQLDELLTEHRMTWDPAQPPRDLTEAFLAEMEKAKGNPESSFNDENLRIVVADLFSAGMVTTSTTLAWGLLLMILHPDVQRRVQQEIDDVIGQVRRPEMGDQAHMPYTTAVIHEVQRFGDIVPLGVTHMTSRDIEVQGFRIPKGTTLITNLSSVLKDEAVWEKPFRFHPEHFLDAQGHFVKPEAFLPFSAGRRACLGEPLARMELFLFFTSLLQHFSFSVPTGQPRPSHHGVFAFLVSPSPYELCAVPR

CYP2E1 [14] = biological target: T9, CYP2E1 (Homo sapiens, UniProt P05181); test: Direct inhibition of CYP isoforms in HLM
T9 sequence (P05181 whole entry, canonical isoform): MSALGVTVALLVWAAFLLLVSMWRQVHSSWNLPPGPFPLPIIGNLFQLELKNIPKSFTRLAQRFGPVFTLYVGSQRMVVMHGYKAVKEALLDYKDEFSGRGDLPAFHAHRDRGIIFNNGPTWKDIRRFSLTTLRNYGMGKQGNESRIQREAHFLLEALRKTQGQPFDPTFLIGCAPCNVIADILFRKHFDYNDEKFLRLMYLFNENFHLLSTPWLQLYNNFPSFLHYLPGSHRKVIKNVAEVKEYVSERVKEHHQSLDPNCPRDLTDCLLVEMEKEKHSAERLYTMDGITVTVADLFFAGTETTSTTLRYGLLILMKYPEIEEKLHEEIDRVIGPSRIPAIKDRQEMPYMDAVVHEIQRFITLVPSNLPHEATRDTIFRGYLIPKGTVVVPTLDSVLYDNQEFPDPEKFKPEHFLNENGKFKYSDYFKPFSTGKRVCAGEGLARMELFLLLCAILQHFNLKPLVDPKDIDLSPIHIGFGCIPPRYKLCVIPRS

CYP1A2 [15] = biological target: T2, CYP1A2; test: Time-dependent inhibition of CYP isoforms in HLM
CYP2A6 [16] = biological target: T3, CYP2A6; test: Time-dependent inhibition of CYP isoforms in HLM
CYP2B6 [17] = biological target: T4, CYP2B6; test: Time-dependent inhibition of CYP isoforms in HLM
CYP2C8 [18] = biological target: T5, CYP2C8; test: Time-dependent inhibition of CYP isoforms in HLM
CYP2C9 [19] = biological target: T6, CYP2C9; test: Time-dependent inhibition of CYP isoforms in HLM
CYP2C19 [20] = biological target: T7, CYP2C19; test: Time-dependent inhibition of CYP isoforms in HLM
CYP2D6 [21] = biological target: T8, CYP2D6; test: Time-dependent inhibition of CYP isoforms in HLM
CYP2E1 [22] = biological target: T9, CYP2E1; test: Time-dependent inhibition of CYP isoforms in HLM

% Remaining ([1]; Daidzin 0.02 μmol/L): 106% | NADH ([1]; Daidzin 0.02 μmol/L): 132 nmol/min/mg | % Remaining ([1]; Daidzin 0.05 μmol/L): 102% | NADH ([1]; Daidzin 0.05 μmol/L): 127 nmol/min/mg | % Remaining ([1]; Daidzin 0.14 μmol/L): 93% | NADH ([1]; Daidzin 0.14 μmol/L): 117 nmol/min/mg | % Remaining ([1]; Daidzin 0.41 μmol/L): 96% | NADH ([1]; Daidzin 0.41 μmol/L): 120 nmol/min/mg | % Remaining ([1]; Daidzin 1.2 μmol/L): 76% | NADH ([1]; Daidzin 1.2 μmol/L): 95 nmol/min/mg | % Remaining ([1]; Daidzin 3.7 μmol/L): 57% | NADH ([1]; Daidzin 3.7 μmol/L): 72 nmol/min/mg | % Remaining ([1]; Daidzin 11 μmol/L): 27% | NADH ([1]; Daidzin 11 μmol/L): 33 nmol/min/mg | % Remaining ([1]; Daidzin 33 μmol/L): 16% | NADH ([1]; Daidzin 33 μmol/L): 20 nmol/min/mg | % Remaining ([1]; Daidzin 100 μmol/L): 7% | NADH ([1]; Daidzin 100 μmol/L): 8 nmol/min/mg
Structure (SMILES): O=c1c(-c2ccc(O)cc2)coc2cc(O[C@@H]3O[C@H](CO)[C@@H](O)[C@H](O)[C@H]3O)ccc12 [Daidzin]

IC50 [1]: 503 µM | % Remaining ([1]; secnidazole 0.2 μmol/L): 94% | NADH ([1]; secnidazole 0.2 μmol/L): 117 nmol/min/mg | % Remaining ([1]; secnidazole 0.5 μmol/L): 90% | NADH ([1]; secnidazole 0.5 μmol/L): 112 nmol/min/mg | % Remaining ([1]; secnidazole 1.4 μmol/L): 90% | NADH ([1]; secnidazole 1.4 μmol/L): 112 nmol/min/mg | % Remaining ([1]; secnidazole 4.1 μmol/L): 100% | NADH ([1]; secnidazole 4.1 μmol/L): 125 nmol/min/mg | % Remaining ([1]; secnidazole 12.3 μmol/L): 110% | NADH ([1]; secnidazole 12.3 μmol/L): 137 nmol/min/mg | % Remaining ([1]; secnidazole 37 μmol/L): 96% | NADH ([1]; secnidazole 37 μmol/L): 120 nmol/min/mg | % Remaining ([1]; secnidazole 111.1 μmol/L): 79% | NADH ([1]; secnidazole 111.1 μmol/L): 99 nmol/min/mg | % Remaining ([1]; secnidazole 333.3 μmol/L): 63% | NADH ([1]; secnidazole 333.3 μmol/L): 79 nmol/min/mg | % Remaining ([1]; secnidazole 1000 μmol/L): 32% | NADH ([1]; secnidazole 1000 μmol/L): 39 nmol/min/mg | Time-dependent inhibition of ALDH2 (residual ALDH2 catalytic activity) ([2]; preincubation time 0.5): 104 | Time-dependent inhibition of ALDH2 (residual ALDH2 catalytic activity) ([2]; preincubation time 1): 103 | Time-dependent inhibition of ALDH2 (residual ALDH2 catalytic activity) ([2]; preincubation time 2): 101 | Time-dependent inhibition of ALDH2 (residual ALDH2 catalytic activity) ([2]; preincubation time 3): 104 | Time-dependent inhibition of ALDH2 (residual ALDH2 catalytic activity) ([2]; preincubation time 4): 101 | Time-dependent inhibition of ALDH2 (residual ALDH2 catalytic activity) ([2]; preincubation time 8): 110 | Time-dependent inhibition of ALDH2 (residual ALDH2 catalytic activity) ([2]; preincubation time 16): 113 | Time-dependent inhibition of ALDH2 (residual ALDH2 catalytic activity) ([2]; preincubation time 24): 131 | Time-dependent inhibition of ALDH2 (in words) ([2]; preincubated with ALDH2 enzyme and NAD+ from 1 to 24 minutes, secnidazole at 10 or 100 μmol/L): little or no time‐dependent inhibition | Km [3]: > 6.4 mM | metabolism in HLMs (in words) (human liver microsomes; concentrations up to 6400 µmol/L): very low metabolism | Km (human liver microsomes; read-out: Km for M2 formation, rate linear with substrate concentration): > 6.4 mM | metabolism in human plasma in vitro [4]: no evidence of secnidazole metabolism | IC50 (CYP1A2 [7]): > 5000 µM | IC50 (CYP2A6 [8]): > 5000 µM | IC50 (CYP2B6 [9]): > 5000 µM | IC50 (CYP2C8 [10]): > 5000 µM | IC50 (CYP2C9 [11]): > 5000 µM | IC50 (CYP2C19 [12]): 3870 µM | IC50 (CYP2D6 [13]): > 5000 µM | IC50 (CYP2E1 [14]): > 5000 µM | IC50 (CYP1A2 [15]): > 500 µM | IC50 (CYP2A6 [16]): > 500 µM | IC50 (CYP2B6 [17]): > 500 µM | IC50 (CYP2C8 [18]): > 500 µM | IC50 (CYP2C9 [19]): > 500 µM | IC50 (CYP2C19 [20]): > 1000 µM | IC50 (CYP2D6 [21]): > 500 µM | IC50 (CYP2E1 [22]): > 500 µM
Structure (SMILES): Cc1ncc([N+](=O)[O-])n1CC(C)O (centres unmarked) [secnidazole]
metabolism in cDNA‐expressed enzymes [5]: did not demonstrate conclusive evidence of any metabolism | cumulative urinary excretion of free and conjugated secnidazole [6]: approximately 50% | direct inhibition (in words) (CYP2A6 [8]; HLM, CYP2A6): some clear concentration‐dependent inhibition at higher concentration | direct inhibition (in words) (CYP2B6 [9]; HLM, CYP2B6): some clear concentration‐dependent inhibition at higher concentration | direct inhibition (in words) (CYP2D6 [13]; HLM, CYP2D6): some clear concentration‐dependent inhibition at higher concentration
